Assay [1] has as its system ⍺4β7. As to the kind of experiment: SPR: inhibition by linear peptides of soluble ⍺4β7 binding to a gp120 V2 (cV2 92TH023) surface. Particulars: Fig 7C, 7E. From the text:
(§1) To determine if this is the case, we employed an SPR -based assay. Biosensor surfaces were coated with either CD4 D1D2 or a 42 aa cyclic V2 peptide derived from the subtype E 92TH023 gp120 (cV2 92TH023). A third surface coated with MAdCAM-Ig was employed as a positive control. Soluble ⍺4β7 was passed over these surfaces. We then evaluated the capacity of staggered 15 aa peptides that span either CD4 D2 or gp120 V2 to inhibit this interaction (Fig 7A).
(§2) Fig 7 Reciprocal inhibition of gp120 V2 and CD4 binding to ⍺4β7 by D2 and V2 peptides. SPR measurements of soluble ⍺4β7 (analyte) binding to biosensor surfaces coated with CD4 D1D2, 92TH023 cyclic peptide, or MAdCAM-Ig in the absence or presence of either CD4 D2 or gp120 V2 peptides, as indicated. (A) List of overlapping 15 aa peptides corresponding to residues 157–187 of CD4 and residues 158–192 of gp120 V2 (subtype B consensus sequence). (B) Binding of ⍺4β7 to sCD4 D1D2 +/- CD4 D2 peptides. X-axis indicates ⍺4β7 mass bound (RU) at the end of the association phase. (C) Binding of ⍺4β7 to 92TH023 +/- gp120 V2 peptides. (D) Binding of ⍺4β7 to sCD4 D1D2 +/- gp120 V2 peptides. (E) Binding of ⍺4β7 to 92TH023 +/- CD4 D2 peptides. […]
(§3) Experiments were performed using a Biacore 3000 instrument (Cytiva Life Sciences) using CM4 or CM5 sensor chips. The data were evaluated using BIAevaluation 4.1.1 software (Cytiva Life Sciences). […]
For orientation: In SPR one partner is held on a chip, and binding of the other changes the refractive index at the surface.

Assay [2] has as its system ⍺4β7. Nature of the assay: SPR: inhibition by linear peptides of soluble ⍺4β7 binding to a MAdCAM-Ig surface. The note with it: Fig 7F, 7G.
Text: as §1, §2, §3

Regarding “QKKVEFKIDIVVLA [CD4 P42, linear CD4 D2 peptide, residues 165-178, G β-strand]”, the “inhibition of gp120 binding to ⍺4β7 (in words)” value in assay [1] was “inhibits gp120 binding to ⍺4β7”. In assay [2], the “inhibition of MAdCAM-Ig binding to ⍺4β7 (in words)” value is “inhibit MAdCAM-Ig binding to ⍺4β7”.

The record behind these values is article PMC10732398 (PLOS Pathogens, 2023).
